Assay results published in ChEMBL document CHEMBL1152560, “Substituted 2-arylbenzothiazoles as kinase inhibitors: hit-to-lead optimization” (Bioorg Med Chem, 2009).

Assays:
[1] = target: T1, Ephrin type-B receptor 4 (Homo sapiens) (UniProt P54760); experiment: Residual activity of EPHB4 at 1 uM by microplate scintillation counting
T1 sequence (whole entry): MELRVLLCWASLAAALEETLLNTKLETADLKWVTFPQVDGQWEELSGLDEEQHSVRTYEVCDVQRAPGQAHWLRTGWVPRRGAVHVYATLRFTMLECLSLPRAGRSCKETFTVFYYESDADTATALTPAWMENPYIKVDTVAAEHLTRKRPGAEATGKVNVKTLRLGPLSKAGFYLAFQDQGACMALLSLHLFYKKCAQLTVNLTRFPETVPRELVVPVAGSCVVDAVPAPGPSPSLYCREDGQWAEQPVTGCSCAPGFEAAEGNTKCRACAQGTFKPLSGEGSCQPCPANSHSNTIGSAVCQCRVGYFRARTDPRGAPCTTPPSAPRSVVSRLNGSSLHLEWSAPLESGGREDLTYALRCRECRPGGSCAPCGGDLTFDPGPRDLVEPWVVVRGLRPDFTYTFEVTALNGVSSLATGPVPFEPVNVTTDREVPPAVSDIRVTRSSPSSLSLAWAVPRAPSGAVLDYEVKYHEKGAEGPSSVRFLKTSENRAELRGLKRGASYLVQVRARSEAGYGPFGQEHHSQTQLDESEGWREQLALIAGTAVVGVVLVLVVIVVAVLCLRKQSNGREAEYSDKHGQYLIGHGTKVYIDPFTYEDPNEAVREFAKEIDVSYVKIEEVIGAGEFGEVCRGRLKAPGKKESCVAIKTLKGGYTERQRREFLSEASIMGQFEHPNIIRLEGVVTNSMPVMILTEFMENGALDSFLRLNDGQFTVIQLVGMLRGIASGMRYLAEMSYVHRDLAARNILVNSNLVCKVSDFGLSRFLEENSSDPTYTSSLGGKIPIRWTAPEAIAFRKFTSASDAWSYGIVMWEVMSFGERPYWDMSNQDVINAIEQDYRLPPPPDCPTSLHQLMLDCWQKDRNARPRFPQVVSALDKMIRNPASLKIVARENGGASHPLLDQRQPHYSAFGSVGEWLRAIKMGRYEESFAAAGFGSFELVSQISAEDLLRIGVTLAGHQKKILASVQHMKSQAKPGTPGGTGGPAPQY

[2] = target: Ephrin type-A receptor 2 (Homo sapiens) (UniProt P29317); experiment: Residual activity of EPHA2 at 1 uM by microplate scintillation counting
[3] = target: Mitogen-activated protein kinase 8 (Homo sapiens) (UniProt P45983); experiment: Residual activity of JNK1 at 1 uM by microplate scintillation counting
[4] = target: T2, Activin receptor type-1 (Homo sapiens) (UniProt Q04771); experiment: Residual activity of ACV-R1 at 0.1 uM by microplate scintillation counting
T2 sequence (whole entry): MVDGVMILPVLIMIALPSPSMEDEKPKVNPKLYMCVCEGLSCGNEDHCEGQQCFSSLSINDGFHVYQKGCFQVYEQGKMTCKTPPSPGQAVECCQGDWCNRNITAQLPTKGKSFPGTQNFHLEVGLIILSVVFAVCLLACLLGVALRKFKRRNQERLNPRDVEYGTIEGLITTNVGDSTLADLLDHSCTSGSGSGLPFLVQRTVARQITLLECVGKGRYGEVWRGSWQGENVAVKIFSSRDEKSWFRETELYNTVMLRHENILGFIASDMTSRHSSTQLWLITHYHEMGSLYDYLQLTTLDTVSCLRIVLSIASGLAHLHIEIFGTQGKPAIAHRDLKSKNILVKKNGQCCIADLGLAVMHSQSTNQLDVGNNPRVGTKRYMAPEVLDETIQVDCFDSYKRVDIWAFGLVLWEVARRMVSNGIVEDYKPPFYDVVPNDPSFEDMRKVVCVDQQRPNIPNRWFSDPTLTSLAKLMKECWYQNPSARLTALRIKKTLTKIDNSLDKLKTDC

[5] = target: T3, Ephrin type-A receptor 8 (Homo sapiens) (UniProt P29322); experiment: Residual activity of EPHA8 at 0.1 uM by microplate scintillation counting
T3 sequence (whole entry): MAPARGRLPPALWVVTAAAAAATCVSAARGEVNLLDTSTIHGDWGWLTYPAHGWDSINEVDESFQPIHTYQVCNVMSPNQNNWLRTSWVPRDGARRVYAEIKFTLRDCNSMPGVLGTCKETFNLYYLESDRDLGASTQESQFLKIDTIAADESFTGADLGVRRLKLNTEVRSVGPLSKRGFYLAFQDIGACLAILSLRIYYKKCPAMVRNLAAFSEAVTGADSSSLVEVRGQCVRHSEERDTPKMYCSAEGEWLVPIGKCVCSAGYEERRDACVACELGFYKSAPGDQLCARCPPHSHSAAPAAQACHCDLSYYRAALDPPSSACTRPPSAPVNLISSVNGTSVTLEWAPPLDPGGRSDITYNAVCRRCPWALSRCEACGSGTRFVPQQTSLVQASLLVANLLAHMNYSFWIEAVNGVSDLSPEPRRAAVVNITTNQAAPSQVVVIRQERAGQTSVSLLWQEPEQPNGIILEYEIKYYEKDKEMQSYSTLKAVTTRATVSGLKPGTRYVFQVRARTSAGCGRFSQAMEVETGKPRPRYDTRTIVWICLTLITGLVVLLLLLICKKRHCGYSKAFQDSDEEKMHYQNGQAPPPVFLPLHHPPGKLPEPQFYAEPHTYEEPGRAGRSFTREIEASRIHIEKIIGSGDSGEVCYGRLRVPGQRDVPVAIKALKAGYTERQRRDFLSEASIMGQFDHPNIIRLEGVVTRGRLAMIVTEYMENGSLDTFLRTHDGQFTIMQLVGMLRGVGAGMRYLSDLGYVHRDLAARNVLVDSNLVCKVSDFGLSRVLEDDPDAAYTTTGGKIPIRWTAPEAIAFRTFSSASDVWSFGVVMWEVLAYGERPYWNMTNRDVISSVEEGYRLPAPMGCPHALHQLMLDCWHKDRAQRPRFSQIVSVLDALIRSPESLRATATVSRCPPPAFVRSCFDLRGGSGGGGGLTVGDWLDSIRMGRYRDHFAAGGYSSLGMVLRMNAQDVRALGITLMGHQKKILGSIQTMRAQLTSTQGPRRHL

Chain of Mitogen-activated protein kinase 8 (Homo sapiens) (P45983 whole entry): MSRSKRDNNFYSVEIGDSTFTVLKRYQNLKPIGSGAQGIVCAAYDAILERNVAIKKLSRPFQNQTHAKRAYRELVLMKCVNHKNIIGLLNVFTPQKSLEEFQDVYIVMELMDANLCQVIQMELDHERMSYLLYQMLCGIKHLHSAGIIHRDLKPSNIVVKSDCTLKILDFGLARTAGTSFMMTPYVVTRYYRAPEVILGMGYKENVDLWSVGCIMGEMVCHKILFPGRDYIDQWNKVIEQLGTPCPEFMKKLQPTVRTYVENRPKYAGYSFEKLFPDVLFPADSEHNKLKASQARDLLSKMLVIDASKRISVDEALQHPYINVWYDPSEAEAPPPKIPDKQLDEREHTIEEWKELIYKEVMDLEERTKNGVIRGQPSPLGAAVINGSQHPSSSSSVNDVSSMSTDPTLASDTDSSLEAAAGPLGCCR
Chain of Ephrin type-A receptor 2 (Homo sapiens) (P29317 whole entry): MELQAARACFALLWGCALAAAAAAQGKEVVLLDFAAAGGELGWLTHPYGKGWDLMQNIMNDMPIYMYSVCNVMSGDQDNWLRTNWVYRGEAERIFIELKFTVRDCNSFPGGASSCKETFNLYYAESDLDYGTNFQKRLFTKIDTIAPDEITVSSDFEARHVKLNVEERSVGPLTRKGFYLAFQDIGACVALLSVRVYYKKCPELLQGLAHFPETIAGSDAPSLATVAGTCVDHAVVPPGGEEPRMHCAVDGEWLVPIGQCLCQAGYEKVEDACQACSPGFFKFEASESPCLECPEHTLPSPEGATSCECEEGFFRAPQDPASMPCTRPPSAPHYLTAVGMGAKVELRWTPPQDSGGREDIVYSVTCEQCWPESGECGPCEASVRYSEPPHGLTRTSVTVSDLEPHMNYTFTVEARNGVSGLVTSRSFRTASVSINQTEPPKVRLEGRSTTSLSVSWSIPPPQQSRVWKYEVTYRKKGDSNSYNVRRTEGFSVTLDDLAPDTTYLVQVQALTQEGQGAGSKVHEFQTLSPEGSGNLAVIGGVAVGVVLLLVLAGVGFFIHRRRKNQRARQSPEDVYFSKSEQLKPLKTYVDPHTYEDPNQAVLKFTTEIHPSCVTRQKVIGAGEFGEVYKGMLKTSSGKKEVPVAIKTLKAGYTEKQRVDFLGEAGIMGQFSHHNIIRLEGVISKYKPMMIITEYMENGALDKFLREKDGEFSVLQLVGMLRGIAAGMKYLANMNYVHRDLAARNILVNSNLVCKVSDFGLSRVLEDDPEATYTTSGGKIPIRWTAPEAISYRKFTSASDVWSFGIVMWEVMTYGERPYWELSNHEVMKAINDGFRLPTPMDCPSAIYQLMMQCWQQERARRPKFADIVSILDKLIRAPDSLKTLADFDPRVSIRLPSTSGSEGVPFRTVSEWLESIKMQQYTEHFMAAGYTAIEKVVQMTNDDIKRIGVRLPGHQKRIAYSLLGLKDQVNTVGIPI

Row | residual activity [1] [%] | residual activity [2] [%] | residual activity [3] [%] | residual activity [4] [%] | residual activity [5] [%] | Compound
1 | 127 | 97 | 142 | 91 | 108 | COc1cc2c(Oc3ccc(-c4nc5ccccc5s4)cc3)ncnc2cc1OCCCN1CCCC1
2 | 127 | 111 | 142 | 89 | 109 | COc1cc2c(Oc3ccc(-c4nc5ccccc5s4)cc3)ncnc2cc1OCCCN1CCN(C)CC1
3 | 114 | 109 | 154 | 97 | 101 | COc1cc2c(Oc3ccc(-c4nc5ccccc5s4)cc3F)ncnc2cc1OCCCN1CCN(C)CC1
